Data reported in PubChem BioAssay (NCI).
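Cells were grown in 96-well plates and exposed to each compound for 48 hours at five concentrations; endpoints were interpolated linearly between bracketing concentrations, or set to the highest concentration if not reached. At the TGI there is no net growth.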

Key:
Assay in all cases: NCI tumour cell line growth inhibition, 48 h
786-0 renal = test system: 786-0 renal
A498 renal = test system: A498 renal
A549 NSCLC = test system: A549 NSCLC
ACHN renal = test system: ACHN renal
CAKI-1 renal = test system: CAKI-1 renal
CCRF-CEM leukemia = test system: CCRF-CEM leukemia
COLO 205 colon = test system: COLO 205 colon
DLD-1 colon = test system: DLD-1 colon
DMS 114 small cell lung = test system: DMS 114 small cell lung
DMS 273 small cell lung = test system: DMS 273 small cell lung
EKVX NSCLC = test system: EKVX NSCLC
HCC-2998 colon = test system: HCC-2998 colon
HCT-116 colon = test system: HCT-116 colon
HL-60(TB) leukemia = test system: HL-60(TB) leukemia
HOP-62 NSCLC = test system: HOP-62 NSCLC
HOP-92 NSCLC = test system: HOP-92 NSCLC
HT29 colon = test system: HT29 colon
IGROV1 ovarian = test system: IGROV1 ovarian
K-562 leukemia = test system: K-562 leukemia
KM12 colon = test system: KM12 colon
KM20L2 colon = test system: KM20L2 colon
LOX IMVI melanoma = test system: LOX IMVI melanoma
LXFL 529 NSCLC = test system: LXFL 529 NSCLC
M14 melanoma = test system: M14 melanoma
M19-MEL melanoma = test system: M19-MEL melanoma
MALME-3M melanoma = test system: MALME-3M melanoma
MOLT-4 leukemia = test system: MOLT-4 leukemia
NCI-H226 lung = test system: NCI-H226 lung
NCI-H23 lung = test system: NCI-H23 lung
NCI-H460 lung = test system: NCI-H460 lung
NCI-H522 lung = test system: NCI-H522 lung
OVCAR-3 ovarian = test system: OVCAR-3 ovarian
OVCAR-5 ovarian = test system: OVCAR-5 ovarian
OVCAR-8 ovarian = test system: OVCAR-8 ovarian
RPMI-8226 leukemia = test system: RPMI-8226 leukemia
SF-268 CNS = test system: SF-268 CNS
SF-295 CNS = test system: SF-295 CNS
SF-539 CNS = test system: SF-539 CNS
SK-MEL-2 melanoma = test system: SK-MEL-2 melanoma
SK-MEL-28 melanoma = test system: SK-MEL-28 melanoma
SK-MEL-5 melanoma = test system: SK-MEL-5 melanoma
SK-OV-3 ovarian = test system: SK-OV-3 ovarian
SN12C renal = test system: SN12C renal
SNB-19 CNS = test system: SNB-19 CNS
SNB-75 CNS = test system: SNB-75 CNS
SNB-78 CNS = test system: SNB-78 CNS
SR leukemia = test system: SR leukemia
SW-620 colon = test system: SW-620 colon
TK-10 renal = test system: TK-10 renal
U251 CNS = test system: U251 CNS
UACC-257 melanoma = test system: UACC-257 melanoma
UACC-62 melanoma = test system: UACC-62 melanoma
UO-31 renal = test system: UO-31 renal
HCT-15 colon = test system: HCT-15 colon
OVCAR-4 ovarian = test system: OVCAR-4 ovarian
RXF 393 renal = test system: RXF 393 renal

Measured: TGI

CCOC1=CP(=O)(OCC)CC(C)=C1Cl (stereo unspecified)
25.2 µM: COLO 205 colon
75.2 µM: DMS 273 small cell lung
not listed: HCT-15 colon | OVCAR-4 ovarian | RXF 393 renal
> 100 µM: all other assays above

COc1c(Br)cc(Br)c(OC)c1-c1ccc[nH]1
not listed: HCC-2998 colon | KM20L2 colon | MALME-3M melanoma | SN12C renal | SNB-19 CNS | SR leukemia | RXF 393 renal
> 100 µM: all other assays above

C=C1C(=O)OC2C1CC[C@H](C)C1(O)C(O)CC(=O)[C@@]21C (stereo partly specified)
71.2 µM: UO-31 renal
42.7 µM: MOLT-4 leukemia
61.3 µM: SF-295 CNS
55.2 µM: HL-60(TB) leukemia
72.7 µM: CAKI-1 renal
47.8 µM: OVCAR-3 ovarian
80.7 µM: DLD-1 colon
84.2 µM: SNB-78 CNS
47.9 µM: SR leukemia
46.6 µM: HCC-2998 colon
72.1 µM: SK-MEL-2 melanoma
66.7 µM: 786-0 renal
39.2 µM: MALME-3M melanoma
42.8 µM: OVCAR-8 ovarian
65.4 µM: OVCAR-5 ovarian
30.8 µM: COLO 205 colon
> 100 µM: A549 NSCLC | NCI-H460 lung | SNB-19 CNS | U251 CNS
73.4 µM: IGROV1 ovarian
53.3 µM: NCI-H226 lung
45.1 µM: EKVX NSCLC | SN12C renal
44 µM: SW-620 colon
40.3 µM: NCI-H23 lung | SF-539 CNS
48.9 µM: HT29 colon
52.3 µM: DMS 273 small cell lung
> 10 µM: CCRF-CEM leukemia | LXFL 529 NSCLC | RXF 393 renal | TK-10 renal
54.5 µM: SF-268 CNS
25.3 µM: UACC-62 melanoma
27 µM: SK-MEL-28 melanoma
76.2 µM: SNB-75 CNS
94.8 µM: RPMI-8226 leukemia
33.9 µM: DMS 114 small cell lung | HCT-116 colon
56 µM: SK-OV-3 ovarian
36 µM: A498 renal
26.8 µM: M19-MEL melanoma
32.6 µM: UACC-257 melanoma
47.7 µM: HOP-92 NSCLC
31.4 µM: SK-MEL-5 melanoma
43.4 µM: ACHN renal
55.6 µM: K-562 leukemia
34.1 µM: KM12 colon
